Where two headings read alike, the source gives them in different places.

The target of assay [1] is T1, hCA XIII (Homo sapiens, UniProt Q8N1Q1).
T1 construct: gene CA13; recombinant, obtained in-house; cytosolic
The experiment in a line: biochemical. Set-up: stopped-flow CO2 hydration assay, phenol red 557 nm, Hepes pH 7.5, recombinant alpha-CA, 6 h preincubation. The procedure: (§1) An applied photophysics stopped-flow instrument has been used for assaying the CA-catalysed CO2 hydration activity. Phenol red (at a concentration of 0.2 mM) was used as indicator, working at the absorbance maximum of 557 nm, with 20 mM Hepes (pH 7.5) as buffer for α-CAs or 20 mM TRIS (pH 8.4) as buffer for β-CAs, and 20 mM Na2SO4 (for maintaining constant the ionic strength), following the initial rates of the CA-catalysed CO2 hydration reaction for a period of 10 – 100 s. The CO2 concentrations ranged from 1.7 to 17 mM for the determination of the kinetic parameters and inhibition constants. For each inhibitor, at least six traces of the initial 5 – 10% of the reaction have been used for determining the initial velocity. The uncatalysed rates were determined in the same manner and subtracted from the total observed rates. Stock solutions of inhibitor (0.1 mM) were prepared in distilled – deionised water, and dilutions up to 0.01 nM were done thereafter with the assay buffer. Inhibitor and enzyme solutions were preincubated together for 6 h at room temperature prior to assay in order to allow for the formation of the E – I complex. The inhibition constants were obtained by nonlinear least-squares methods using PRISM 3 and the Cheng–Prusoff equation, as reported earlier[12]^,[13]^,[20]^,[21], and represent the mean from at least three different determinations. All CA isoforms were recombinant ones obtained in-house as reported earlier[22]^,[23] and their concentrations in the assay system ranged between 7.6–12.5 nM.

Assay [2] concerns the target T2, hCA VII (Homo sapiens, UniProt P43166).
T2 construct: gene CA7; recombinant, obtained in-house; cytosolic
The experiment in a line: biochemical. Set-up: stopped-flow CO2 hydration assay, phenol red 557 nm, Hepes pH 7.5, recombinant alpha-CA, 6 h preincubation. The procedure: as §1

Assay [3] concerns the target T3, hCA II (Homo sapiens, UniProt P00918).
T3 construct: gene CA2; recombinant, obtained in-house; cytosolic
The experiment in a line: biochemical. Set-up: stopped-flow CO2 hydration assay, phenol red 557 nm, Hepes pH 7.5, recombinant alpha-CA, 6 h preincubation. The procedure:
as §1

Assay [4] has as its target T4, StCA2 (Salmonella enterica, UniProt O30898).
T4 construct: gene mig-5; recombinant, obtained in-house; beta-class CA
T4 sequence (O30898 41-246): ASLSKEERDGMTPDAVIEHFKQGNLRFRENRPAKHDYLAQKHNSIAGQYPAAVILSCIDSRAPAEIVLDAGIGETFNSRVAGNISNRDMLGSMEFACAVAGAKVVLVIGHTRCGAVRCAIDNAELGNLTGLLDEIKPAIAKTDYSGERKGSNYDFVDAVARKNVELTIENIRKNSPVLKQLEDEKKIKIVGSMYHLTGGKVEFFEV
Details: stopped-flow CO2 hydration assay, phenol red 557 nm, TRIS pH 8.4, recombinant beta-CA, 6 h preincubation. Particulars: inhibitor. The procedure: as §1, with “For each inhibitor, at least six traces of the initial 5 – 10% of the reaction have been used for determining the initial velocity.” left out

The target of assay [5] is T5, hCA I (Homo sapiens, UniProt P00915).
T5 construct: gene CA1; recombinant, obtained in-house; cytosolic
Kind of assay: stopped-flow CO2 hydration. Format: biochemical. The text has this: stopped-flow CO2 hydration on hCA I

Assay [6] addresses T5, hCA I. The experiment in a line: biochemical. Details: stopped-flow CO2 hydration assay, phenol red 557 nm, Hepes pH 7.5, recombinant alpha-CA, 6 h preincubation. The procedure:
as §1

Assay [7] addresses T4, StCA2. Kind of assay: stopped-flow CO2 hydration. In kind it is biochemical. The conditions noted are these: 20 mM TRIS pH 8.4, 20 mM Na2SO4, CO2 1.7-17 mM; 6 h preincubation at room temperature. The text has this:
stopped-flow CO2 hydration on StCA2

A further assay addresses T6, StCA1.
T6 construct: recombinant, obtained in-house; beta-class CA
Kind of assay: stopped-flow CO2 hydration. Format: biochemical, Salmonella enterica subsp. enterica serovar Typhimurium. Particulars: 20 mM TRIS pH 8.4, 20 mM Na2SO4, CO2 1.7-17 mM; 6 h preincubation at room temperature. The source says: stopped-flow CO2 hydration on StCA1

Assay [8] deals with T1, hCA XIII. Kind of assay: stopped-flow CO2 hydration. In kind it is biochemical. The source says:
stopped-flow CO2 hydration on hCA XIII

Assay [9] addresses T3, hCA II. Kind of assay: stopped-flow CO2 hydration. Format: biochemical. The text has this:
stopped-flow CO2 hydration on hCA II

Assay [10] deals with T2, hCA VII. Kind of assay: stopped-flow CO2 hydration. In kind it is biochemical. The text has this:
stopped-flow CO2 hydration on hCA VII

T5 sequence (P00915 2-261): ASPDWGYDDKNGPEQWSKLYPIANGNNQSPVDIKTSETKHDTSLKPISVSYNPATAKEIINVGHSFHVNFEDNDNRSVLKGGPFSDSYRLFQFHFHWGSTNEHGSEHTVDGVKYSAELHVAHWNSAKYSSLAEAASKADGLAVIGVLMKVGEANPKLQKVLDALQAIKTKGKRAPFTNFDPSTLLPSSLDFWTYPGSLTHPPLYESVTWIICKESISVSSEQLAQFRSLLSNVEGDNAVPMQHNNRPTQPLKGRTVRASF
T2 sequence (P43166 whole entry): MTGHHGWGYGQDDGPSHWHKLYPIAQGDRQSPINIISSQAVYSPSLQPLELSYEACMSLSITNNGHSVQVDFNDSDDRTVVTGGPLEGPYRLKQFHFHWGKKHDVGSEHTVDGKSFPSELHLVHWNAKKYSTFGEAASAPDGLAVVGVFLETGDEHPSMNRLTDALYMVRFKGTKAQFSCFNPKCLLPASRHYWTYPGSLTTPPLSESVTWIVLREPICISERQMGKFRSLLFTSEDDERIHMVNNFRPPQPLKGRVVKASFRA
T1 sequence (Q8N1Q1 whole entry): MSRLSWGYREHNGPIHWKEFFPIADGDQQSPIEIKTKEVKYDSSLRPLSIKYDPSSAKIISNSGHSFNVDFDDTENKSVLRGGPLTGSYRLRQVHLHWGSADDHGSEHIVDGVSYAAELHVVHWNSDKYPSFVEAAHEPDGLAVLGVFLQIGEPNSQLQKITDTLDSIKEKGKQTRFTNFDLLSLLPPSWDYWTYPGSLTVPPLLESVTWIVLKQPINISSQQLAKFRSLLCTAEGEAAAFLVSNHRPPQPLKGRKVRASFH

Turning to `NC(=Nc1ccc(S(N)(=O)=O)cc1)SCc1ccc(Br)cc1` [8i, 4-Bromobenzyl (4-sulphamoylphenyl)carbamimidothioate], the Ki – broadly, the dissociation constant of the complex between target and ligand, obtained from inhibition or displacement – at hCA XIII [1] was 907 nM; on hCA VII [2], 2.1 nM; on hCA II [3], 29.9 nM; on StCA2 [4], 9700 nM; at hCA I [5], 60 nM.

Take `NC(=Nc1ccc(S(N)(=O)=O)cc1)SCc1ccc([N+](=O)[O-])cc1` [8k]: the inhibition constant (Ki) was found to be 856 nM on hCA XIII [1]; 2.6 nM at hCA VII [2]; 9 nM on hCA II [3]; 77.2 nM at hCA I [6]; 6850 nM at StCA2 [4].

In the case of `CCCCSC(N)=Nc1ccc(S(N)(=O)=O)cc1` [8b, Butyl (4-sulphamoylphenyl)carbamimidothioate], the Ki at hCA VII [2] was found to be 13.8 nM; at hCA II [3], 73.6 nM; on hCA I [6], 76.4 nM; on StCA2 [7] it was 348 nM.

Turning to `CCCCCCCSC(N)=Nc1ccc(S(N)(=O)=O)cc1` [8d, Heptyl (4-sulphamoylphenyl)carbamimidothioate], the Ki stood at 926 nM on hCA XIII [1]; 2.7 nM on hCA VII [2]; 9.3 nM on hCA II [3]; 955 nM at StCA2 [4]; 71.3 nM at StCA1.

As to `NC(=Nc1ccc(S(N)(=O)=O)cc1)SCc1ccccc1` [8g, Benzyl (4-sulphamoylphenyl)carbamimidothioate], the inhibitory constant (Ki) turned out to be 491 nM at hCA XIII [1]; 2.4 nM at hCA VII [2]; 68.1 nM on hCA I [6]; 52.2 nM at StCA1; 902 nM at StCA2 [7].

As to `CSC(N)=Nc1ccc(S(N)(=O)=O)cc1` [8a, Methyl (4-sulphamoylphenyl)carbamimidothioate], the inhibitory constant (Ki) on hCA VII [2] worked out at 18.9 nM; at hCA II [3], 85.8 nM; at hCA I [6], 90.4 nM; at StCA2 [7], 270 nM; at hCA XIII [8], 97.5 nM.

Take `C=CCSC(N)=Nc1ccc(S(N)(=O)=O)cc1` [8e, Allyl (4-sulphamoylphenyl)carbamimidothioate]: the Ki on hCA XIII [1] was determined as 814 nM; at StCA2 [4], 4990 nM; on hCA I [5] it was 38.5 nM; at hCA II [9] it was 8.2 nM; on hCA VII [10], 1.8 nM.

For `N#Cc1ccc(CSC(N)=Nc2ccc(S(N)(=O)=O)cc2)cc1` [8j, 4-Cyanobenzyl (4-sulphamoylphenyl)carbamimidothioate], the inhibition constant Ki was 302 nM at hCA XIII [1]; 21.5 nM at hCA II [3]; 82.8 nM at hCA I [6]; 5190 nM at StCA2 [4]; 55.7 nM on StCA1; 1.5 nM on hCA VII [10].

For `C#CCSC(N)=Nc1ccc(S(N)(=O)=O)cc1` [8f, Prop-2-yn-1-yl (4-sulphamoylphenyl)carbamimidothioate], the inhibition constant (Ki) was found to be 352 nM at hCA XIII [1]; 5.5 nM on hCA VII [2]; 92.5 nM at hCA I [6]; 7120 nM on StCA2 [4]; 6.9 nM on hCA II [9].

On to `NC(=Nc1ccc(S(N)(=O)=O)cc1)SCc1cc(F)cc(F)c1` [8m, 3,5-Difluorobenzyl (4-sulphamoylphenyl)carbamimidothioate], for which the inhibition constant Ki at hCA I [6] was 82.2 nM; at StCA2 [4], 6310 nM; at hCA II [9], 1.7 nM; on hCA VII [10] it was 1.2 nM; at hCA XIII [8], 75.6 nM.

Take `NC(=Nc1ccc(S(N)(=O)=O)cc1)SCc1ccc(Cl)cc1` [8h, 4-Chlorobenzyl (4-sulphamoylphenyl)carbamimidothioate]: the Ki worked out at 892 nM on hCA XIII [1]; 2 nM at hCA VII [2]; 34.4 nM at hCA II [3]; 73.2 nM at hCA I [6]; 6680 nM at StCA2 [4].

As to `NC(=Nc1ccc(S(N)(=O)=O)cc1)SCc1ccc(C(F)(F)F)cc1` [8l, 4-(Trifluoromethyl)benzyl (4-sulphamoylphenyl)carbamimidothioate], the Ki was found to be 2.3 nM on hCA VII [2]; 8.9 nM at hCA II [3]; 73.5 nM on hCA I [6]; 5890 nM at StCA2 [4]; 80.5 nM at hCA XIII [8].

For the origin of these results see paper PMC9848269, “Investigation of novel alkyl/benzyl (4-sulphamoylphenyl)carbamimidothioates as carbonic anhydrase inhibitors” (Journal of Enzyme Inhibition and Medicinal Chemistry, 2023).
